For data set [1] the following is noted: cited from earlier work.
The test system of the next data set is glioma cells. Particulars: cited from earlier work.
A further data set concerns one or more cancers. The following applies: cyclophosphamide only.

Description for one or more cancers: One or more patients are identified who have one or more cancers selected from lung carcinoma, prostate cancer, gliaoblastoma multiform, hormone refractory prostate cancer, solid tumor malignancies such as colon carcinoma, non-small cell lung cancer (NSCLC), anaplastic astrocytoma, bladder carcinoma, sarcoma, ovarian carcinoma, rectal hemangiopericytoma, pancreatic carcinoma, advanced cancer, cancer of large bowel, stomach, pancreas, ovaries, melanoma pancreatic cancer, colon cancer, and bladder cancer.
The one or more patients are administered a formulation comprising cyclophosphamide only. […] On the day of the next administration and prior to the administration, as assessment of the outcome of treatment until that point is conducted and compared to all previous assessments.
Patients are then administered a combination of cyclophosphamide and quercetin and SPB. […] An assessment of the outcome of treatment is periodically made.

As to `O=c1c(O)c(-c2ccc(O)c(O)c2)oc2cc(O)cc(O)c12` [Quercetin, quercetin], in data set [1], the water solubility entry is given as “not water soluble”. Further, in the data set with glioma cells, the “angiogenesis in glioma cells” value was “suppression of angiogenesis”.
With `O=P1(N(CCCl)CCCl)NCCCO1` (stereo not drawn) [cyclophosphamide], in the data set on one or more cancers, the “response of the cancers following the initial response period” value is listed as “become resistant”.

The values above are taken from patent publication US11890292B2, “Compositions, methods, systems and/or kits for preventing and/or treating neoplasms” (Research Cancer Institute of America, priority 2017, dated 2024).
